Our source for the IC50 values is US6747061B2, “N-substituted dithiocarbamates for the treatment of biological disorders” (AtheroGenics, Inc., priority 2000, dated 2004).

pIC50: −log10 of the molar value.

The assay relates to VCAM-1. Description: VCAM-1 assay: enzyme immunoassay of TNF-α induced VCAM-1 expression in endothelial cells. Type of assay: cell-based, Human. To be noted: Homo sapiens, Endothelial cell; HAEC, TNF-α 1 ng/ml, approximately 16 hours; read-out: VCAM-1 IC50. How it is done: The VCAM-1 assay is an enzyme immunoassay to detect tumor necrosis factor alpha (TNF-α) induced Vascular Adhesion Molecule (VCAM-1) expression in endothelial cells.
Human endothelial cells (HAEC) were purchased from Clonetics and maintained in EGM media (Clonetics) supplemented with 5% fetal bovine serum (FBS). In a typical experiment, cells were seeded in 96-well plates. The next day cells were stimulated with TNF-α (1 ng/ml) purchased from Boehringer Mannheim in the presence or absence of compounds dissolved in dimethylsulphoxide (DMSO). To establish a dose curve for each compound, four concentrations in 2 fold increments were used. Cells were exposed to TNF-α and compounds for approximately 16 hours. The next day, cells were examined under microscope to score for visual signs of toxicity.
Media was discarded and the cells were washed once with Hanks buffered saline solution (HBSS)/phosphate buffered solution (PBS) 91:1). Primary mouse monoclonal antibody against VCAM-1 purchased from Southern Biotechnology Associates (0.25 μg/ml in HBSS/PBS+5% FBS) was added and incubated at 37° C. for 30 minutes. Cells were washed with HBSS/PBS three times, and secondary antibody horse radish peroxidase (HRP)-conjugated goat anti-mouse IgG purchased from Southern Biotechnology Associates (1:500 in HBSS/PBS+5% FBS) was added and incubated at 37° C. for 30 minutes. Cells were washed with HBSS/PBS four times and peroxidase substrate 3.3′,5,5′-tetramethyl-benzidine (TMB) was added and incubated in the dark at room temperature until there was adequate blue color development. The length of incubation time was typically 5-15 minutes. 2 N sulfuric acid was added to stop the color development and the data was collected by reading the absorbance at O.D. 450 nm. The result was expressed as the percentage of control sample (cells stimulated by TNF without any compound).

Usually pIC50 stands for −log10 of the IC50, conventionally taken in molar units. As for `COC(=O)CCCSC(=S)NCC1CCCO1` (stereo not shown) [NDE, 4-(tetrahydrofuran-2-ylmethylthiocarbamoylsulfanyl)-butyric acid methyl ester], the pIC50 is 5.82.
